# Source: patent publication US20090099214A1, “Organic Compounds” (Novartis AG, priority 2006, published 2009)
# Counter-ions that a name gives are not always drawn.
# Target: adenosine A2a receptor (Homo sapiens, UniProt P29274)
# Assay: adenosine A2a receptor agonist test (method of Murphree et al / Hannon et al)
# Type: binding
# Experimental: Compounds of formula I and their pharmaceutically acceptable salts are useful as pharmaceuticals. In particular, they activate the adenosine A2a receptor activation, i.e. they act as A2a receptor agonists.
# For example, the compounds of Examples 7, 8, 17, 19, and 38 have Ki values of 0.003, 0.002, 0.011, 0.008, and 0.007 μM respectively.
# adenosine A2a receptor, sequence (P29274 whole entry): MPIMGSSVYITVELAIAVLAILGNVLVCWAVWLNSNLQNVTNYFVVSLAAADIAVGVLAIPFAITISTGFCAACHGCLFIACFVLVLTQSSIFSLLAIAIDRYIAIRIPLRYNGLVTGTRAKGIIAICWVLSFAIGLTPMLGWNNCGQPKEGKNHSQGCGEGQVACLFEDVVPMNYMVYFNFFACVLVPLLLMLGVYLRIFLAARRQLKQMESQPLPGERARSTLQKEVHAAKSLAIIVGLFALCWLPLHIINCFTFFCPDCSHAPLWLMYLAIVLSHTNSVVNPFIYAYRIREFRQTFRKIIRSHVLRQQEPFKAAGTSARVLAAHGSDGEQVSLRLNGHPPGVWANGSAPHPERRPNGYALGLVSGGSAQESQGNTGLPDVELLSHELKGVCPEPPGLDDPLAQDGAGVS
row,SMILES,Ki [nM]
1,"CCC(=O)N[C@H]1C[C@@H](n2cnc3c(NCC(c4ccc(OC)cc4)c4ccc(OC)cc4)nc(N4CC[C@@H](NC(=O)N[C@@H]5CCNC5)C4)nc32)[C@H](O)[C@@H]1O [Example 7, N-((1S,2R,3S,4R)-4-{6-[2,2-Bis-(4-methoxy-phenyl)-ethylamino]-2-[(R)-3-((R)-3-pyrrolidin-3-ylureido)-pyrrolidin-1-yl]-purin-9-yl}-2,3-dihydroxy-cyclopentyl)-propionamide trifluoroacetate]",3
2,"CCC(=O)N[C@H]1C[C@@H](n2cnc3c(NCC(c4ccccc4)c4ccc(F)cc4)nc(N4CC[C@@H](NC(=O)N[C@@H]5CCNC5)C4)nc32)[C@H](O)[C@@H]1O (stereo partly drawn) [Example 8, N-((1S,2R,3S,4R)-4-{6-[2-(4-fluoro-phenyl)-2-phenyl-ethylamino]-2-[(R)-3-((R)-3-pyrrolidin-3-ylureido)-pyrrolidin-1-yl]-purin-9-yl}-2,3-dihydroxy-cyclopentyl)-propionamide trifluoroacetate]",2
3,"CCC(=O)N[C@H]1C[C@@H](n2cnc3c(NCCc4ccccc4-c4ccccc4)nc(N4CC[C@@H](NC(=O)N[C@@H]5CCNC5)C4)nc32)[C@H](O)[C@@H]1O [Example 17, N-((1S,2R,3S,4R)-4-{6-(2-biphenyl-2-yl-ethylamino)-2-[(R)-3-((R)-3-pyrrolidin-3-ylureido)-pyrrolidin-1-yl]-purin-9-yl}-2,3-dihydroxy-cyclopentyl)-propionamide trifluoroacetate]",11
4,"CCC(=O)N[C@H]1C[C@@H](n2cnc3c(NCC(c4ccc(OC)c(OC)c4)c4ccc(OC)c(OC)c4)nc(N4CC[C@@H](NC(=O)N[C@@H]5CCNC5)C4)nc32)[C@H](O)[C@@H]1O [Example 19, N-((1S,2R,3S,4R)-4-{6-[2,2-bis-(3,4-dimethoxy-phenyl)-ethylamino]-2-[(R)-3-((R)-3-pyrrolidin-3-ylureido)-pyrrolidin-1-yl]-purin-9-yl}-2,3-dihydroxy-cyclopentyl)-propionamide trifluoroacetate]",8
5,"CCC(=O)N[C@H]1C[C@@H](n2cnc3c(NCC(c4ccccc4)c4ccc(F)cc4)nc(NC4CCC(N)CC4)nc32)[C@H](O)[C@@H]1O (stereo partly drawn) [Example 38, N-((1S,2R,3S,4R)-4-{2-(4-Amino-cyclohexylamino)-6-[2-(4-fluoro-phenyl)-2-phenyl-ethylamino]-purin-9-yl}-2,3-dihydroxy-cyclopentyl)-propionamide trifluoroacetate]",7
